Read-outs that look alike come from different tables or passages of the source.
What was measured:
LXR β LBD protein = LXR β LBD protein (Homo sapiens (Human), UniProt P55055); assay: biochemical; assay type: binding
[1] = target: Gal4 DNA binding domain fused to the LBD of LXRα in HEK293 cells (Homo sapiens (Human), UniProt Q13133); assay: LXR luciferase transcriptional reporter gene assay, agonist mode, LXRα; assay type: cell-based; conditions: for EC50: read-out: Cell LXRα EC50
[2] = target: Gal4 DNA binding domain fused to the LBD of LXRβ in HEK293 cells (Homo sapiens (Human), UniProt P55055); assay: cell-based
Sequence of Gal4 DNA binding domain fused to the LBD of LXRβ in HEK293 cells (P55055 222-460 limits assumed): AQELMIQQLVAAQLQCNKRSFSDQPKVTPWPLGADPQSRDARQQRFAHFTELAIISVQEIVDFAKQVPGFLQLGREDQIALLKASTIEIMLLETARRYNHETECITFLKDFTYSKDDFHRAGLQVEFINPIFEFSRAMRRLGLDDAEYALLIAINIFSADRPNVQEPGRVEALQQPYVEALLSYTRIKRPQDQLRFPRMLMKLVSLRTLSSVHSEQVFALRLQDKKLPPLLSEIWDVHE

[3] = agonist mode, read-out: Cell LXRβ EC50
[4] = Biological Test Example 1, read-out: LXRβ Binding Ki
[5] = Biological Test Example 2, agonist mode
[6] = Biological Test Example 2, agonist mode, read-out: Cell LXRβ EC50

Sequence of LXR β LBD protein (P55055 222-460 limits assumed): as above
Sequence of Gal4 DNA binding domain fused to the LBD of LXRα in HEK293 cells (Q13133 209-447): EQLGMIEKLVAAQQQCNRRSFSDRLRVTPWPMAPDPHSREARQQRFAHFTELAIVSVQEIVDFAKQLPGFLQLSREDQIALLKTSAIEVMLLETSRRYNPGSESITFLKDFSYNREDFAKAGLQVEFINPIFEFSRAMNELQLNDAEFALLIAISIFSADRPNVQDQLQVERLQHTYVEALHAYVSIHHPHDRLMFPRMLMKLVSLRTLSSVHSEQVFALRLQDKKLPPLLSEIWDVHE

Compound	Cell LXRα efficacy [1]	EC50 [1] [nM]	EC50 [2] [nM]	Ki (LXR β LBD protein; read-out: LXRβ Binding Ki) [nM]	Cell LXRβ efficacy ([2]; agonist mode)	EC50 ([1]; agonist mode) [nM]	other results
C[C@H](c1ccc(C(F)(F)F)cc1)N1CCN(c2cccc(S(C)(=O)=O)c2)C[C@@H]1c1ccccc1 (single isomer, unassigned) [46-18]	4598 (45) %	4600	1430				Ki (LXR β LBD protein): 35 nM; Cell LXRβ efficacy [2]: 1434 (31) %
CC(F)(F)[C@H]1CC[C@@H](CN2CCN(c3cccc(S(C)(=O)=O)c3)C[C@@H]2c2ccccc2)CC1 (single isomer, unassigned) [48-28]		> 20000		1340	12%		EC50 [2, 3]: 6480 nM
CC(F)(F)[C@H]1CC[C@@H](CN2CCN(c3cccc(S(C)(=O)=O)c3)C[C@H]2c2ccccc2)CC1 (single isomer, unassigned) [48-29]	6290 (43) %	6290		378	20%		EC50 [2, 3]: 1500 nM
CS(=O)(=O)c1cccc(N2CCN(C[C@H]3CC[C@H](C(F)(F)F)CC3)[C@@H](c3ccccc3Cl)C2)c1 (single isomer, unassigned) [48-46]	1908 (35) %	1910					Ki (LXR β LBD protein; [4]): 27 nM; Cell LXRβ efficacy [2, 5]: 35%; EC50 [2, 6]: 910 nM
CS(=O)(=O)c1cccc(N2CCN(C[C@H]3CC[C@@]4(CC3)CC4(F)F)[C@H](c3ccccc3)C2)c1 (single isomer, unassigned) [48-70]	9091 (26) %	9090					Ki (LXR β LBD protein; [4]): 750 nM; Cell LXRβ efficacy [2, 5]: 58%; EC50 [2, 6]: 3730 nM
CS(=O)(=O)c1cccc(N2CCN(C[C@@H]3CC[C@@H](C(F)(F)F)OC3)[C@@H](c3ccc(F)cc3)C2)c1 (single isomer, unassigned) [49-11]	2460 (42) %	2460	887				Ki (LXR β LBD protein): 214 nM; Cell LXRβ efficacy [2, 5]: 887 (21) %
CC(C)[C@@H]1CN(c2ccc(F)c(S(C)(=O)=O)c2)CCN1c1ncc(C#N)c(C(F)(F)F)n1 [7-21, (R)-2-(4-(4-fluoro-3-(methylsulfonyl)phenyl)-2-isopropylpiperazin-1-yl)-4-(trifluoromethyl)pyrimidine-5-carbonitrile]	549 (86) %		152	9	152 (65) %	549	
CCOC(=O)c1cnc(N2CCN(c3ccc(F)c(S(C)(=O)=O)c3)CC2CC(F)(F)F)nc1C (centres unmarked) [7-22, ethyl 2-(4-(4-fluoro-3-(methylsulfonyl)phenyl)-2-(2,2,2-trifluoroethyl)piperazin-1-yl)-4-methylpyrimidine-5-carboxylate]	1038 (43) %		191	17	191 (31) %	1040	
CCOC(=O)c1cnc(N2CCN(c3ccc(F)c(S(C)(=O)=O)c3)C[C@H]2C2CC2)nc1C(F)(F)F [9-4, ethyl (R)-2-(2-cyclopropyl-4-(4-fluoro-3-(methylsulfonyl)phenyl)piperazin-1-yl)-4-(trifluoromethyl)pyrimidine-5-carboxylate]	1415 (37) %		318	13	318 (27) %	1410	
COC(=O)c1cnc(N2CCN(c3ccc(F)c(S(C)(=O)=O)c3)C[C@H]2c2ccc(F)cc2)nc1C(F)(F)F [9-9, methyl (R)-2-(4-(4-fluoro-3-(methylsulfonyl)phenyl)-2-(4-fluorophenyl)piperazin-1-yl)-4-(trifluoromethyl)pyrimidine-5-carboxylate]	3041 (6) %		780	298	780 (13) %	3040	
Cc1nc(N2CCN(c3ccc(F)c(S(C)(=O)=O)c3)CC2CC(F)(F)F)ncc1C(C)(C)O (centres unmarked) [10-6, 2-(2-(4-(4-fluoro-3-(methylsulfonyl)phenyl)-2-(2,2,2-trifluoroethyl)piperazin-1-yl)-4-methylpyrimidin-5-yl)propan-2-ol]	9158 (22) %		1310	862		9160	
CC(C)(O)c1cc(CN2CCN(c3cccc(S(C)(=O)=O)c3)C[C@@H]2c2ccccc2)ccc1C(F)(F)F [10-13, (S)-2-(5-((4-(3-(methylsulfonyl)phenyl)-2-phenylpiperazin-1-yl)methyl)-2-(trifluoromethyl)phenyl)propan-2-ol]			> 20000	226		> 20000	
CNS(=O)(=O)c1cc(N2CCN(c3ncc(C(C)=O)c(C(F)(F)F)n3)[C@H](C(C)C)C2)ccc1F [13-2, (R)-5-(4-(5-acetyl-4-(trifluoromethyl)pyrimidin-2-yl)-3-isopropylpiperazin-1-yl)-2-fluoro-N-methylbenzenesulfonamide]	290 (73) %	290	33		33 (58) %		Ki (LXR β LBD protein): 3 nM
CC(=O)c1cnc(N2CCN(c3ccc(F)c(S(C)(=O)=O)c3)C[C@H]2c2ccc(F)cc2)nc1C(F)(F)F [13-3, (R)-1-(2-(4-(4-fluoro-3-(methylsulfonyl)phenyl)-2-(4-fluorophenyl)piperazin-1-yl)-4-(trifluoromethyl)pyrimidin-5-yl)ethan-1-one]	2458 (21) %	2460	360	88	360 (18) %		
C=C(C)c1cnc(N2CCN(c3ccc(CO)c(S(C)(=O)=O)c3)C[C@H]2C(C)C)nc1C(F)(F)F [14-2, (R)-(4-(3-isopropyl-4-(5-(prop-1-en-2-yl)-4-(trifluoromethyl)pyrimidin-2-yl)piperazin-1-yl)-2-(methylsulfonyl)phenyl)methanol]	186 (63) %		28	1	28 (42) %	186	
CSCc1cnc(N2CCN(c3ccc(F)c(S(C)(=O)=O)c3)C[C@H]2C(C)C)nc1C(F)(F)F [15-8, (R)-2-(4-(4-fluoro-3-(methylsulfonyl)phenyl)-2-isopropylpiperazin-1-yl)-5-((methylthio)methyl)-4-(trifluoromethyl)pyrimidine]	219 (44) %		34	1	34 (35) %	219	
CC(C)[C@@H]1CN(c2ccc(F)c(S(C)(=O)=O)c2)CCN1c1ncc(C(=O)N2CC(N)C2)c(C(F)(F)F)n1 [17-4, (R)-(3-aminoazetidin-1-yl)(2-(4-(4-fluoro-3-(methylsulfonyl)phenyl)-2-isopropylpiperazin-1-yl)-4-(trifluoromethyl)pyrimidin-5-yl)methanone]			833	512	833 (6) %	> 20000	
CC(C)[C@@H]1CN(c2ccc(F)c(S(C)(=O)=O)c2)CCN1c1ncc(C(=O)N2CC(O)C2)c(C(F)(F)F)n1 [17-5, (R)-(2-(4-(4-fluoro-3-(methylsulfonyl)phenyl)-2-isopropylpiperazin-1-yl)-4-(trifluoromethyl)pyrimidin-5-yl)(3-hydroxyazetidin-1-yl)methanone]			> 20000	396		> 20000	
CC(C)[C@@H]1CN(c2ccc(F)c(S(C)(=O)=O)c2)CCN1c1ncc(C(=O)NC2CN(C(=O)OC(C)(C)C)C2)c(C(F)(F)F)n1 [17-20, tert-butyl (R)-3-(2-(4-(4-fluoro-3-(methylsulfonyl)phenyl)-2-isopropylpiperazin-1-yl)-4-(trifluoromethyl)pyrimidine-5-carboxamido)azetidine-1-carboxylate]			> 20000	330		> 20000	
CC(C)[C@@H]1CN(c2ccc(F)c(S(C)(=O)=O)c2)CCN1c1ncc(C(=O)N2CC(NC(=O)OC(C)(C)C)C2)c(C(F)(F)F)n1 [17-21, tert-butyl (R)-(1-(2-(4-(4-fluoro-3-(methylsulfonyl)phenyl)-2-isopropylpiperazin-1-yl)-4-(trifluoromethyl)pyrimidine-5-carbonyl)azetidin-3-yl)carbamate]			> 20000	111		> 20000	
CON(C)C(=O)c1cnc(N2CCN(c3ccc(F)c(S(C)(=O)=O)c3)C[C@H]2c2ccc(F)cc2)nc1C(F)(F)F [17-32, (R)-2-(4-(4-fluoro-3-(methylsulfonyl)phenyl)-2-(4-fluorophenyl)piperazin-1-yl)-N-methoxy-N-methyl-4-(trifluoromethyl)pyrimidine-5-carboxamide]			> 20000			> 20000	Ki (LXR β LBD protein): 435 nM
CC(C)[C@@H]1CN(c2ccc(F)c(S(C)(=O)=O)c2)CCN1c1nc2cccnc2s1 [Cpd No 7-57, (R)-2-(4-(4-fluoro-3-(methylsulfonyl)phenyl)-2-isopropylpiperazin-1-yl)thiazolo[5,4-b]pyridine]			44	12			Cell LXRβ efficacy [2]: 44 (90) %
CC(C)[C@@H]1CN(c2ccc(CO)c(S(C)(=O)=O)c2)CCN1c1ccc(C(F)(F)F)nc1 [Cpd No 20-4, (R)-(4-(3-isopropyl-4-(6-(trifluoromethyl)pyridin-3-yl)piperazin-1-yl)-2-(methylsulfonyl)phenyl)methanol]			28	20	28 (105) %		
Cc1nc(N2CCN(c3cccc(S(C)(=O)=O)c3)C[C@H]2C(C)C)ccc1C(F)(F)F [Cpd No 37-2, (R)-2-isopropyl-1-(6-methyl-5-(trifluoromethyl)pyridin-2-yl)-4-(3-(methylsulfonyl)phenyl)piperazine]			49	2			Cell LXRβ efficacy [2]: 49 (98) %
CC1(C)CCC(O)(CN2CCN(c3cccc(S(C)(=O)=O)c3)C[C@@H]2c2ccccc2)CC1 [Cpd No 53-1, (S)-4,4-dimethyl-1-((4-(3-(methylsulfonyl)phenyl)-2-phenylpiperazin-1-yl)methyl)cyclohexan-1-ol]			1030				Ki (LXR β LBD protein; [4]): 121 nM; Cell LXRβ efficacy [2, 5]: 1030 (53) %
